≈ marks a conversion by molar mass, not a printed value.
Legend:
calpain = calpain inhibition using casein as substrate (method by Saito et al.); assay type: biochemical
[1] = test system: various kinds of bacteria, yeast and fungi; test: antimicrobial activity (paper disk method); assay type: cell-based; settings: 100 μg/disk
B-16 melanoma cells = test: activity against B-16 melanoma cells in vitro; assay type: cell-based; settings: Mus musculus, B16
[2] = acute toxicity LD50 (ip) in mice; settings: mouse, in vivo
solubility in solvent = assay type: physicochemical; settings: water, methanol, acetone, chloroform and benzene

Question: Which “IC50 (50% inhibition) against calpain” value (calpain) does the source give for NC(=O)CCc1cc[nH]c1 [cystamidin A] here?
Answer: The value was 0.20 µg/mL (≈ 1.45 µM).

Question: What about the antimicrobial activity [1] of the same molecule?
Answer: Its antimicrobial activity is “no antimicrobial activity”.

Question: And the IC50 (B-16 melanoma cells)?
Answer: The IC50 was greater than 25 µg/mL.

Question: What about the LD50 [2] of the same molecule?
Answer: The LD50 was greater than 200 mg/kg.

Question: What about the Solubility in solvent (solubility in solvent) of the same molecule?
Answer: The Solubility in solvent was “soluble in water, methanol, acetone, chloroform and benzene”.

Source: patent publication US5336783A, “Calpain inhibitor cystamidin A and its production” (The Kitasato Institute, priority 1992, dated 1994)
